Each structure is given as a SMILES string.

Holding throughout (assay type): biochemical, P. sapidus
In assay [1] the test system is O-Methyltransferase. In words: Enzymatic methylation of further substrates, conversion rates (Table 2). The following applies: 34 °C, 500 µM educt, phosphate buffer pH 7,4 (100 mM), 24 h, without shaking; for Produktkonzentration: concentration of the methylated product. Here is the method: In Tabelle 2 sind die Umsetzungsraten weiterer Ausführungsbeispiele zusammengestellt, wobei die Reaktionsbedingungen für die Umsetzungen in Tabelle 2 beispielhaft wie folgt ausgewählt wurden: Temperatur 34 °C, jeweils 500 µM Edukt- und Produktkonzentration, Phosphatpuffer pH = 7,4 (100 mM), Reaktionsdauer: 24 h, Durchführung jeweils ohne Schütteln). Tabelle 2: Weitere beispielhaft ausgewählte Umsatzraten

Assay [2] deals with O-Methyltransferase. The experiment in a line: Enzymatic conversion of the thiol substrate, product detected by GC-MS. The following applies: compared with blanks (chemical and chemical-biological). The text has this: Durch die Umsetzung von 2-Methyl-3-furanthiol als Substrat mit O-Methyltransferase wird beispielhaft das breite, Substanzklassen-übergreifende, Substratspektrum der O-Methyltransferase gezeigt. Neben den unter 6. aufgeführten Substraten werden beispielhaft auch Umsetzungen unter Verwendung von 2-Methyl-3-furanthiol durchgeführt.

Assay [3] has as its system O-Methyltransferase. In words: Determination of enzyme kinetic parameters (Michaelis-Menten, non-linear regression). The text has this: Bekanntermaßen werden Biokatalysatoren, bzw. Enzyme wie O-Methyltransferasen, auch durch die Bestimmung ihrer jeweiligen enzymkinetischen Parameter unter definierten Bedingungen charakterisiert. Daher werden anhand eines Beispiels auch die enzymkinetischen Parameter der O-Methyltransferase bestimmt. Die Versuchsergebnisse sind in Tabelle 1 zusammengestellt. Mit dem Substrat, gegenüber dem die beispielhaft untersuchte O-Methyltransferase die höchste Aktivität aufweist, sowie dem Cofaktor werden die enzymkinetischen Parameter (Km, vmax) graphisch nach nichtlinearer Regression (Michaelis-Menten, Softwarepaket OriginPro 2020) ermittelt (vgl. Fig. 8, Fig. 8A, Fig. 8B). Zudem wird beispielhaft die katalytische Konstante (kcat) sowie die katalytische Effizienz (kcat/Km) berechnet. Die resultierenden Werte sind zusammengefasst in Tabelle 1 aufgeführt. Tabelle 1: Enzymkinetische Parameter der aus P. sapidus abgeleiteten O-Methyltransferase unter Verwendung von p-Hydroxybenzaldehyd als Substrat
Fig. 1: Korrelation der Anzahl der Transkriptionskopien und der Peakflächen (normiert auf internen Standard) von p-Anisaldehyd der DK5 und MK57 Kulturen. Fig. 2: SDS-PAGE-Gel der O-Methyltransferase (L: Lysat von E. coli, P: Protein nach Reinigung mittels FPLC) und Western Blot Membran (Anti-His-Tag Antikörper). Fig. 3: Beispielhafte Umsetzung von p-Hydroxybenzaldehyd (500 µM) und SAM (500 µM) mittels O-Methyltransferase (0,16 µM) in Davies Puffer über 2 h (jeweils im Triplikat) zur Ermittlung des pH-Optimums; bei den für die Ordinatenachse gewählten willkürlichen Einheiten handelt es sich um die gerätetypische Quantifizierung der Peakfläche von p-Anisaldehyd im Chromatogramm der jeweiligen Probe aus der betreffenden Reaktionslösung nach Abschluss der Umsetzung. Fig. 4: Beispielhafte Umsetzung von p-Hydroxybenzaldehyd (500 µM) und SAM (500 µM) mittels O-Methyltransferase (0,16 µM) in 0,1 M Phosphatpuffer über 2 h bei 24 °C (jeweils im Triplikat) zur weiteren Ermittlung des pHOptimums. […]

As for `O=c1ccc2cc(O)ccc2o1` [6-Hydroxycoumarin], in the assay with O-Methyltransferase [1], the Umsetzungsrate is recorded as 2% and the Produktkonzentration is recorded as 11,5 ± 0,3 µM.
As for `COc1cc(C=O)ccc1O` [Vanillin], in the assay with O-Methyltransferase [1], the Umsetzungsrate is given as 5% and the Produktkonzentration was 23,8 ± 0,9 µM.
For the compound `Cc1occc1S` [2-Methyl-3-furanthiol], the “Bildung des methylierten Produktes” value in the assay with O-Methyltransferase [2] is on record as “gesteigerte Bildung des methylierten Produktes”.
What is called Km is the substrate concentration at which the rate is half of its maximum. With `O=Cc1ccc(O)cc1` [p-Hydroxybenzaldehyd], in the assay on O-Methyltransferase [3] (calculated, p-Hydroxybenzaldehyd as substrate), the “katalytische Konstante (kcat)” value is on record as 2,5 s^-1. Moreover, the “mittlere maximale Geschwindigkeit (vmax)” value with O-Methyltransferase [3] (substrate with SAM (500 µM), enzyme 0,16 µM, 0,1 M phosphate buffer pH 7,4, 34 °C, 20 min) is 43,7 mU mg^-1. The Km in the assay with O-Methyltransferase [3] (substrate with SAM (500 µM), enzyme 0,16 µM, 0,1 M phosphate buffer pH 7,4, 34 °C, 20 min, read-out: mittlere Michaelis-Menten-Konstante (Km)) was determined as 79 µM.

The record behind these values is patent EP4303307A1, “METHOD FOR PRODUCING FLAVOURS USING O-METHYLTRANSFERASE FROM PLEUROTUS” (Justus-Liebig-Universität Gießen Rechtsabteilung, priority 2022, dated 2024).
